Converted amounts (≈) assume the structure as drawn. Some results are limits rather than exact numbers.

The source of these data is publication PMC12043106, “Insight into antistaphylococcal effect of chlorinated 1-hydroxynaphthalene-2-carboxanilides” (ADMET & DMPK, 2025).

Data set [1] concerns S. aureus ATCC 29213. Nature of the data set: Antistaphylococcal screening, microtitration broth MIC. It counts as cell-based, Staphylococcus aureus. The settings on record: Staphylococcus aureus, ATCC29213; S. aureus ATCC 29213, 24 h, 37 °C. Here is the method: (§1) In vitro antistaphylococcal activity of the synthesized compounds was evaluated against three clinical isolates of methicillin-resistant S. aureus: clinical isolate of animal origin, MRSA 63718 (Department of Infectious Diseases and Microbiology, Faculty of Veterinary Medicine, University of Veterinary Sciences Brno, Czech Republic), carrying the mecA gene; and MRSA SA 630 and MRSA SA 3202 [54] (National Institute of Public Health, Prague, Czech Republic), both of human origin. […] All isolates were tested for the presence of the mecA gene encoding methicillin resistance. […] Vancomycin-susceptible methicillin-susceptible S. aureus (VS-MSSA) ATCC 29213, obtained from the American Type Culture Collection, was used as the reference and quality control strain. The minimum inhibitory concentrations (MICs) were evaluated by the microtitration broth method according to the CLSI [58, 59] with some modifications. The compounds were dissolved in DMSO (Sigma, St. Louis, MO, USA) to get a concentration […] and diluted in a microtitration plate in a medium Cation Adjusted Mueller-Hinton (CaMH, Oxoid, Basingstoke, UK) to reach the final concentration of 256-0.0625 μg/mL. The plate was inoculated by the tested microorganisms. The final concentration of bacterial cells was 10^5 for bacteria. […] A drug-free control and a sterility control were included. The plates were incubated for 24 h at 37 °C. […] The experiments were repeated three times.

For data set [2], the system named is Human monocytic leukemia THP-1 cells. Set-up: method as in PMID 24075143. As to conditions: tested up to 20 μM, ref [29], read-out: LC50 THP-1; cited from earlier work.
Data set [3] is described as follows: Lipophilicity determination by HPLC (capacity factor k, distribution coefficients DpH). It counts as physicochemical. The source says: An HPLC system Agilent 1200 equipped with a DAD detector (Agilent, Santa Clara, CA, USA) was used. A chromatographic column Symmetry® C18 5 μm, 4.6×250 mm, part No. WAT054275 (Waters Corp., Milford, MA, USA) was used. The HPLC separation process was monitored and evaluated with EZChrom Elite software ver. 3.3.2 [53] (Agilent). Isocratic elution by a mixture of MeOH p.a. (72 %) and H2O-HPLC Mili-Q grade (28 %) as a mobile phase was used for the determination of capacity factor k. Isocratic elution by a mixture of MeOH p.a. (72 %) and acetate-buffered saline (pH 7.4 and pH 6.5) (28 %) as a mobile phase was used for the determination of distribution coefficients expressed as D7.4 and D6.5. The total flow of the column was 1.0 mL/min, the injection volume was 20 μL, the column temperature was 40 °C, and the sample temperature was 10 °C. The detection wavelength of 210 nm was chosen. A KI methanolic solution was used for the determination of the dead times (tD). Retention times (tR) were measured in minutes. The capacity factors k were calculated according to the formula k = (tR−tD)/tD, where tR is the retention time of the solute, and tD is the dead time obtained using an unretained analyte. The distribution coefficients DpH were calculated according to the formula DpH = (tR−tD)/tD. Each experiment was repeated three times.

For data set [4], the system named is MRSA 63718. The data set can be described thus: Antistaphylococcal screening, microtitration broth MIC. In kind it is cell-based, methicillin-resistant S. aureus. The settings on record: Staphylococcus aureus; MRSA 63718, 24 h, 37 °C. Here is the method:
as §1

Data set [5] relates to MRSA SA 630. The description is as above. In kind it is cell-based, methicillin-resistant S. aureus. The settings on record: Staphylococcus aureus; MRSA SA 630, 24 h, 37 °C. Here is the method: as §1
Data set [6] concerns MRSA SA 3202. The description is as above. It counts as cell-based, methicillin-resistant S. aureus. As to conditions: Staphylococcus aureus; MRSA SA 3202, 24 h, 37 °C. Here is the method:
as §1

As to `O=C(Nc1cccc(Cl)c1)c1ccc2ccccc2c1O` [Compound 3], the MIC – broadly, the least concentration at which growth counts as inhibited – in data set [1] was > 859 µM; in data set [4] it was > 859 µM; in data set [5], 429 µM (≈ 128 µg/mL); in data set [6], 107 µM (≈ 31.9 µg/mL). For the same compound, the CC50 in data set [2] is > 20 µM. In data set [3] (MeOH 72 % / H2O 28 %, C18), this compound registered a log k of 0.8556. Also, the “log D6.5” value in data set [3] (MeOH 72 % / acetate-buffered saline pH 6.5 28 %) stood at 0.7362. Moreover, in data set [3] (MeOH 72 % / acetate-buffered saline pH 7.4 28 %), the “log D7.4” value worked out at 0.7227.
